The test system of assay [1] is serum triglyceride levels. Description: 14-week open-label forced dose-escalation study of P5P in hypertensive diabetic patients: triglyceride level. The format is in vivo, human. The settings on record: for Triglycerides, Percentage Difference: average Visit 12 vs Visit 1. As for the experimental part:
Overview—The study was a 14-week, open-label, forced, dose-escalation study of the efficacy and safety of P5P administered once daily over a dose range of 250 mg to 750 mg, for the treatment of mild to moderate hypertension and hyperlipidemia, in patients with coexisting diabetes mellitus.
Patient Definition—Patients meeting all of the inclusion criteria and none of the exclusion criteria were eligible for enrollment. The primary inclusion criteria were hypertension and diabetes. […] Other than having diabetes and hypertension, patients must have been in good health for their age. A history and physical examination must have been within age-related normal limits, or if abnormal, considered clinically insignificant in the opinion of the investigator. Laboratory tests (CBC with differential, prothrombin and partial thrombo-plastin times, platelet count, and urinalysis and blood chemistry panel), must have been normal, or if abnormal, considered clinically insignificant.
Exclusion criteria included the presence or history (past 12 months) of accelerated or malignant hypertension, as evidenced by hemorrhage and/or exudate, and/or papilloedema on funduscopic examination. Patients having a history of angioedema of the face, lips, tongue, glottis or larynx when treated with ACE inhibitors were excluded. Patients having a diastolic BP>114 mm Hg, and/or systolic BP>200 mm Hg at screening were excluded. Patients with similar readings at the end of the placebo lead-in period were dropped from further participation in the study. During the placebo lead-in period patients who had signs of bradycardia (<45 bpm) or a resting heart rate of >100 bpm were not advanced to the next stage of the study, but rather dropped from further participation.
Exclusion criteria included the presence or history (past 6 months) of myocardial infarction or cerebrovascular accident and clinically significant cardiac pathology such as congestive heart failure, cardio-genic shock, non-controlled arrhythmias, acute myocarditis or pericarditus, significant valvular or congestive heart disease and unstable angina pectoris; presence or evidence of atrioventricular block (second/third degree), or sick sinus syndrome, or any other conduction defect or abnormality including the presence/history of atrial fibrillation or flutter, associated with pre-excitation syndrome; clinically significant gastrointestinal disease, renal insufficiency (serum creatinine […]), hepatic disease, or electrolyte imbalance (serum potassium <3.5 or >5.3 mmol/L, serum sodium <136->145 mmol/L); presence of bronchial asthma or chronic obstructive pulmonary disease; or the presence of any clinically significant concomitant disease that in the opinion of the investigator could interfere with the patient's participation in the study, or confound the outcome variables. Patients having any clinically significant concomitant disease that could interfere with the patient's participation in the study, or confound the outcome variables were excluded. Patients with a history of alcohol abuse or illicit drug use in the 12 months prior to beginning this protocol were excluded. Patients with a terminal illness were excluded. Patients with an arm circumference >41 cm were excluded. Pregnant females, women who were breast-feeding or women of child-bearing potential must have used adequate contraception. Patients who have had therapy with an investigational compound within 30 days prior to entry into the study were excluded. The use of the following medications was cause for exclusion, each had to have been safely discontinued prior to the placebo lead-in phase of the study, and must been withheld until the protocol had been completed: all diuretics and antihypertensive drugs (including beta-blockers, calcium-channel blockers, vasodilators, ACE inhibitors), MAO inhibitors, all anti-arrhythmic drugs, digitalis, major tranquilizers, antidepressants, cimetidine, corticosteroids, and antineoplastics. […]

The subject of assay [2] is serum triglyceride levels. The assay is described as follows: Rabbit hypercholesteremic model (2% cholesterol diet, 7 weeks): serum triglycerides. In kind it is in vivo, Male New Zealand white rabbits. How it is done:
The anti-atherogenic effects of P5P alone and in combination with simvastatin in a rabbit hypercholesteremic model were determined. The study compared the effects of P5P and simvastatin alone and in combination on atherosclerotic lesion formation, lipid profile (total cholesterol, LDL, HDL, triglycerides and oxidized LDL), homocysteine levels and various markers of inflammation (CRP, IL-1β, IL-6, IFN-γ and TNF-α).
Animals—Male New Zealand white rabbits 2.0-3.0 kg.
Animal Feed—The normocholesterol diet is Co-op Complete Rabbit Feed manufactured by Federated Co-operatives Limited (Saskatchewan). The 2% cholesterol diet is Test Diet 0009459 MRab/2% Chol 3/16 manufactured by Purina Mills (USA).
The rabbits were fed the normocholesterol and 2% cholesterol diet ad libitum. All animals received a timothy cube after blood sampling. […]
Group 3: Hypercholesterol diet+P5P 10 mg/kg/day
Group 4: Hypercholesterol diet+simvastatin 5 mg/kg/day
Group 5: Hypercholesterol diet+P5P 10 mg/kg/day+simvastatin 5 mg/kg/day
The rabbits were fed a normocholesterol or hypercholesterol diet for a total of 7 weeks. The normocholesterol rabbits were treated once per day with 1 ml of ethanol and 5 ml of RO water via a nasogastric tube. The hypercholesterol animals were treated once per day with either P5P (10 mg/kg), simvastatin (5 mg/kg) or a combination of P5P and simvastatin (P5P 10 mg/kg; simvastatin 5 mg/kg) via a nasogastric tube. The P5P was dissolved in 5 ml of 0.05 N NaOH so that the pH of the solution is approximately 7. The simvastatin was dissolved in 1 ml of anhydrous ethanol.
Five ml of blood was collected from the marginal ear vein of the rabbits at 0, 2, 4 and 6 weeks. Prior to blood collection the animals were sedated with 1 mg/kg of acepromazine. Following collection, the serum was separated. The serum is aliquoted (500 μl) and frozen at −80° C. until used for the assaying various lipids (total cholesterol, LDL, HDL, triglycerides, oxidized LDL) and cytokines (CRP, IL-1β, IL-6, IFN-γ and TNF-α).
At 7 weeks, the animals were anesthetized and 10 ml of blood was collected. Then the animals were euthanized, and the heart and thoracic aorta removed. The hearts and aortas were frozen in liquid nitrogen or an ethanol dry ice bath and stored at −80° C. until analyzed.
Test Articles—P5P (pyridoxal 5′-phosphate monohydrate) was purchased from Sigma (P82870). Simvastatin is obtained from ACIC Fine Chemicals Inc. Two test compound vials were provided for each animal for each day. The first vial (small) was diluted in 1 ml of anhydrous ethanol. The second vial was diluted in either 5 ml of RO water or 5 ml of 0.05 N NaOH. The diluent for each vial was clearly marked on the vial. The test solutions were prepared fresh each day just before they were administered to the animals. The stock P5P was stored in a refrigerator at 4° C. under low light conditions. The simvastatin was stored following the manufacture recommendations. The individual test vials were stored in a refrigerator at 4° C. under low light conditions.
Test Article(s) Dose, Route of Administration and Duration—The rabbits were treated orally with the drugs, once per day for a total of 7 weeks. The contents of vial one (small; 1 ml) were given to the animals first, followed by the contents of vial 2 (large; 5 ml). The test compound treatments were followed by a 5 ml RO water chaser.

Where [3] appears, read: hypercholesterol diet, n = 5, P5P 10 mg/kg/day, simvastatin 5 mg/kg/day oral.
Setting [4] is: rabbits fed the hypercholesterol diet, 7 weeks.

The text below walks through data of patent US20060148763A1, “Compounds and methods for regulating triglyceride levels” (priority 2005, published 2006).

Several values for one entry are separate records, joined by “and”; a condition that tells them apart may be missing. Identical values can stand only once.

Take `Cc1ncc(COP(=O)(O)O)c(C=O)c1O` [P5P, pyridoxal-5′-phosphate]: the “Triglycerides, Percentage Difference” value in assay [1] (Table 2) is −22.1%; in assay [1] (Table 3, elevated triglycerides (>150 mg/dL)) it was −25.7%. Moreover, the “Triglycerides, Visit 1, Average” value in assay [1] (Table 2, average of 11 patients, screening, before treatment) turned out to be 246.1 mg/dL; in assay [1] (Table 3, elevated triglycerides (>150 mg/dL), average of 7 patients, screening) it was 326.9 mg/dL. Further, the “Triglycerides, Visit 12, Average” value in assay [1] (Table 2, average of 11 patients, week 14) worked out at 191.5 mg/dL; in assay [1] (Table 3, elevated triglycerides (>150 mg/dL), average of 7 patients, week 14) it was 242.9 mg/dL. For the same compound, the “Triglycerides, Visit 1” value in assay [1] (Table 3, patients with elevated triglycerides (>150 mg/dL), individual patients, screening, before treatment) was 150 mg/dL and 601 mg/dL and 188 mg/dL and 180 mg/dL and 530 mg/dL and 442 mg/dL and 197 mg/dL. The “Triglycerides, Visit 12” value in assay [1] (Table 3, patients with elevated triglycerides (>150 mg/dL), individual patients, week 14) was 166 mg/dL and 268 mg/dL and 160 mg/dL and 305 mg/dL and 286 mg/dL and 302 mg/dL and 213 mg/dL. The “reduced triglyceride levels by (average)” value in assay [1] (hypertensive diabetic patients, end of 14 week study) is reported as “approximately 22.1%”; in assay [1] (patients having elevated triglyceride levels (>150 mg/dL) prior to the study), “approximately 25.7%”. Besides, in assay [2] (end of the 7 week study period), the “average serum triglyceride levels as fraction of the levels observed in the control rabbits” value is given as “about ⅓”. Besides, the “Triglycerides, Week 2” value in assay [2] (setting [3]) is on record as 1.244 mmol/L. Moreover, the “Triglycerides, Week 4” value in assay [2] (setting [3]) is on record as 1.530 mmol/L. Also, the “Triglycerides, Week 6” value in assay [2] (setting [3]) came to 1.066 mmol/L. For the same compound, the “Triglycerides, Week 7” value in assay [2] (hypercholesterol diet, n = 5, P5P 10 mg/kg/day, simvastatin 5 mg/kg/day oral, end of study) was 1.038 mmol/L. The “Triglycerides, Week 0” value in assay [2] (hypercholesterol diet, n = 5, P5P 10 mg/kg/day, simvastatin 5 mg/kg/day oral, start of study) is listed as 1.168 mmol/L. Moreover, the “comparison of serum triglyceride reduction between treatments” value in assay [2] (setting [4]) is “more effective than simvastatin treatment”. In assay [2] (setting [4]), the “effect on serum triglyceride levels vs untreated control rabbits” value is given as “effective in reducing serum triglyceride levels”.
